{
  "source": "patent US9486535B2",
  "about": "“Methods of making and using nanostructures” (REGENTS OF THE UNIVERSITY OF MINNESOTA, priority 2012, dated 2016)",
  "key": {"Solubility in water": {"assay": "Solubility in water", "assay_type": "physicochemical"}, "HPB-MLT cells [1]": {"test_system": "HPB-MLT cells", "assay": "Fluorescence confocal microscopy of internalization", "assay_type": "cell-based", "settings": "37° C., 1 hr", "method": "BisMTX-FITC (or BisMTX-PG) and the appropriate DHFR fusion protein were mixed (250 nM) and added to 0.5×10^6 HPB-MLT cells at either 4 or 37° C. for 1 hr in RPMI media. Cells were then pelleted by centrifugation (400×g, 5 min). After being washed twice with PBS (phosphate buffered saline) cells were incubated on Poly-Prep slides coated with poly-L-Lysine (Sigma) at 4 or 37° C. for 30 mins. Cells were then fixed with 4% paraformaldehyde solution for 10 mins and washed thrice with PBS. Finally, cells were treated with ProLong Gold Antifade reagent with DAPI (Invitrogen), a cover slip was applied.\nAfter overnight incubation, images were taken within inner sections of the cells by sequential scanning using a fluorescence confocal microscopy using an Olympus FluoView 1000 BX2 Upright Confocal microscope. Resulting images are the compression of 3-5 z-axis slices. For disassembly experiments after the initial one hour incubation cells were washed twice with PBS before being resuspended in media containing 2 mM trimethoprim, 0.5 mM pyrimethamine or DMSO for three hours at 37° C. after which time they were processed as above. […]\n0.5×10^6 HPB-MLT cells were treated with FITC or BODIPY labeled constructs (1 μM) at either 4 or 37° C. for 1 hr in RPMI media. […] After overnight incubation they were imaged by fluorescence confocal microscopy using a Olympus FluoView 1000 BX2 Upright Confocal microscope. […]"}, "HPB-MLT cells [2]": {"test_system": "HPB-MLT cells", "assay": "Flow cytometry binding to CD3+ cells", "assay_type": "cell-based", "settings": "4° C., 1 hr", "method": "1×10^6 HPB-MLT (or Raji) cells were treated with BisMTX-FITC containing CSAN constructs at the required concentrations at 4° C. for 1 hr in PBS buffer (containing 0.05% BSA and 0.1% sodium azide). Cells were centrifuged (400×g, 10 min), washed twice with PBS/BSA/sodium azide buffer before being resuspended in the same buffer. Their fluorescence was analyzed with a FACSCalibur flow cytometer (BD Biosciences). For competition experiments, HPB-MLT cells were incubated with 40 nM UCHT-1 on ice for 10 mins prior to addition BisMTX-FITC CSAN constructs anti-CD3 constructs (100 nM) followed by washing as above. For disassembly experiments HPB-MLT cells were treated with 150 nM CSANs or 3.95 nM UCHT-1 FITC for 1 hour at 37° C. before being washed twice with RPMI media and finally resuspended in media. […] Samples were stored at 4° C. in the dark until analyzed.\n1×10^6 HPB-MLT cells were treated with FITC or BODIPY labeled constructs (1/0.5/0.1 μM) at 4° C. for 1 hr in PBS buffer (containing 0.05% BSA and 0.1% sodium azide). Cells were pelleted (400×g, 10 min), washed twice, and finally resuspended in the supplemented PBS and their fluorescence was analyzed with a FACSCalibur flow cytometer (BD Biosciences). […] After 1 hr incubation cells were washed, resuspended and analyzed by flow cytometry. […]"}, "DHFR": {"test_system": "DHFR", "settings": "cited from earlier work"}, "HPB-MLT cells [3]": {"test_system": "HPB-MLT cells", "assay": "Cytotoxicity analysis (CellTiter 96 AQueous cell proliferation assay)", "assay_type": "cell-based", "method": "2.5×10^4 HPB-MLT cells were mixed with the appropriate concentration of antiCD3 CSANs in a total volume of 90 uL and incubated at 37° C. for one hour. […] Cell viability was determined using CellTiter 96 AQueous Non-Radioactive Cell Proliferation Assay (Promega)."}},
  "note": "Like-named read-outs stand apart in the source and are kept apart here. {bisMTX} = bis-methotrexate conjugate; {Fluorescein} = fluorescein label",
  "data": [
    {"compound": "CN(Cc1cnc2nc(N)nc(N)c2n1)c1ccc(C(=O)N[C@@H](CCC(=O)NCCCCCN(CCCCCNC(=O)CC[C@@H](NC(=O)c2ccc(N(C)Cc3cnc4nc(N)nc(N)c4n3)cc2)C(=O)O)CCOCCOCCN)C(=O)O)cc1", "note": "[bis-MTX-NH2]", "values": [
      {"measurement": "solubility in water", "setting": "Solubility in water", "result": "water soluble"}
    ]},
    {"compound": "5′ Fluorescein-TGTCATATTCCTGGATCC-Bis-MTX 3′ (5' {Fluorescein}, 3' {bisMTX}, sugars by position and backbone not given here; further chemistry not fully specified) [bis-MTX oligo FITC, bis-MTX oligo conjugate labelled with fluorescein]", "values": [
      {"measurement": "internalization (confocal)", "setting": "HPB-MLT cells [1]", "result": "no increased cellular fluorescence"},
      {"measurement": "cell fluorescence relative to unstained/untreated cells (binding)", "setting": "HPB-MLT cells [2]", "result": "only a small increase in fluorescence"}
    ]},
    {"compound": "CN(Cc1cnc2nc(N)nc(N)c2n1)c1ccc(C(=O)N[C@@H](CCC(=O)O)C(=O)O)cc1", "note": "[MTX, methotrexate]", "values": [
      {"measurement": "enhancement of the affinity of MTX for DHFR by NADPH", "setting": "DHFR", "result": "at least 100 fold"},
      {"measurement": "IC50", "setting": "HPB-MLT cells [3]; 72 h, read-out: IC50 (inhibition of cellular proliferation)", "result": 0.6, "unit": "µM"},
      {"measurement": "IC80", "setting": "HPB-MLT cells [3]; 72 h; read-out: IC80 (inhibition of cellular proliferation)", "result": "> 50", "unit": "µM"}
    ]},
    {"compound": "bis-methotrexate [bisMTX]", "values": [
      {"measurement": "toxicity to HPB-MLT cells", "setting": "HPB-MLT cells [3]", "result": "non-toxic"},
      {"measurement": "IC50", "setting": "HPB-MLT cells [3]; 72 h; read-out: IC50 (inhibition of cellular proliferation)", "result": "> 20", "unit": "µM"}
    ]},
    {"compound": "CN(Cc1cnc2nc(N)nc(N)c2n1)c1ccc(C(=O)N[C@@H](CCC(=O)NCCCCCN(CCCCCNC(=O)CC[C@@H](NC(=O)c2ccc(N(C)Cc3cnc4nc(N)nc(N)c4n3)cc2)C(=O)O)CCOCCOCCNC(=S)Nc2cccc(-c3c4ccc(=O)cc-4oc4cc(O)ccc34)c2C(=O)O)C(=O)O)cc1", "note": "[bisMTX-FITC]", "values": [
      {"measurement": "internalization (confocal)", "setting": "HPB-MLT cells [1]", "result": "no observable internalized fluorescence"}
    ]}
  ]
}
